Assay results as given in PMC7022573, “Development of Level A In Vitro–Vivo Correlation for Electrosprayed Microspheres Containing Leuprolide: Physicochemical, Pharmacokinetic, and Pharmacodynamic Evaluation” (Pharmaceutics, 2020).

Assays:
[1] = Solvent selection for the drug phase: dissolution of leuprolide; type: physicochemical
Source text: Solubility, viscosity, spray pattern, and density of polymer solution were investigated using four solvents (methylene chloride, acetonitrile, ethyl acetate, and acetone), and the optimal solvent was selected from among these. Parameters including dissolution of the leuprolide, miscibility with the solvent of polymer phase, drying degree of dry matter, and density of drug solution were investigated using three solvents (water, ethanol, and methanol), and the optimal solvent was selected.

[2] = rat, in vivo, sc; cited from earlier work
Experimental: The IVIVC model development in this study was carried out using Berkeley Madonna (program version 8.3.14). Differences in PK profiles by formulations were evaluated by adding a release compartment to reflect the release characteristic.

SMILES: CCNC(=O)[C@@H]1CCCN1C(=O)[C@H](CCCNC(=N)N)NC(=O)[C@H](CC(C)C)NC(=O)[C@@H](CC(C)C)NC(=O)[C@H](Cc1ccc(O)cc1)NC(=O)[C@H](CO)NC(=O)[C@H](Cc1c[nH]c2ccccc12)NC(=O)[C@H](Cc1c[nH]cn1)NC(=O)[C@@H]1CCC(=O)N1 [leuprolide]
- Dissolution of Leuprolide ([1]; solvent ethanol): dissolves leuprolide slowly, and the drug easily precipitated
- Dissolution of Leuprolide ([1]; solvent methanol): high solubility
- Dissolution of Leuprolide ([1]; solvent water): high solubility
- CL (clearance) [2]: 514.46 mL/h
- Vd (volume of distribution) [2]: 487.40 mL
- ka (absorption rate constant) [2]: 16.67 h⁻¹
